Results reported in US20240165311A1, “STEM CELLS FOR USE IN ECMO TECHNOLOGY” (priority 2021, published 2024).

Assays:
[1] = tested on: human PBMCs activated with anti-CD3/anti-CD28; assay: PBMC:MSC co-culture, cell composition after 24 hours of activation (FACS); conditions: Prednisolone 125 nM
Protocol: (§1) Freshly isolated human PBMCs, pooled from three donors, were activated with anti-CD3/anti-CD28 at 10 μg/ml and 5 μg/ml respectively in presence of MSCs ex vivo for 24 or 72 hours. Following activation, cells were analysed for effects on cellular composition after 24 hours and for effects on cellular composition and cell proliferation using CFSE after 72 hours. In addition, supernatants collected after 24 hours of activation were analysed for cytokine levels using Luminex.
(§2) Peripheral Blood Mononuclear Cells (PBMCs) were isolated from leucocyte concentrate from three different donors (acquired from Blodcentralen, Lunds Universitetssjukhus, Lund, Sweden) through gradient centrifugation at 400×g for 40 minutes using Ficoll. Red blood cells (RBCs) were lysed using BD Pharmlyse buffer 10× diluted in milliQ water for 3 minutes at room temperature (RT). Cells were washed and the isolated PBMCs were pooled. Cell concentration was determined using a Scepter cell counter (Millipore Merck, MA. USA). Cells were diluted to 1×10^7 cells/ml in PBS. Pooled PBMCs were split into 2 different tubes. Cells in tube 1 was stained with CFSE at 5 μM for 5 minutes (dark, RT). CFSE stained cells were washed with an equal volume of FBS to stop the reaction and washed again with PBS. Cells in tube two was left in PBS.
(§3) MSCs (donor 1, donor 2, donor 3, and AD-MSC control cells) were provided in 8 different tubes, two for each cell type (in different medias (M3 and M4). All cells (PBMCs and MSCs) were diluted in the two different cell culture media (M3 and M4) to a final concentration of 2*10^6 cells/ml. Media was supplemented with anti-CD28 at 5 μg/ml. Cells were added to anti-CD3 (1 μg/well, 100 μl/well) coated U bottom cell culture plates according to the layout below, 200 μl/well in different PBMC:MSC ratios (1:10, 1:5, 1:2.5, 1:0 and 0:1) with a total amount of cells at 4*10^5 cells/well.
(§4) Included in the assay were also controls (stimulated and unstimulated PBMCs) and two reference drugs, e.g. cyclosporine (CsA) and Prednisolone (Pred). When plating controls, cells were spun down and diluted in M3 or M4 at 4*10^6 cells/ml, with a total amount of cells at 4*10^5 cells/well. 100 μl PBMCs were added per well. CsA was added at a final concentration of 10 μg/ml and Prednisolone was added at a final concentration of 125 nM (700 μl/well). Medium was added to unstimulated control wells (700 μl/well). Cells were incubated for 24 or 72 hours at 37° C., 5% CO2. See also FIG. 19.
Following 24 hours of incubation, cells in FACS/Luminex plates were stained with antibodies detecting CD73, CD4, CD8, CD80, CD206, CD163 and PD-1 in staining buffer (PBS supplemented with 1% BSA). Briefly, cells were transferred to V bottom plates and centrifuged at 360×g for 2 min. Supernatant was transferred to a storage plate and put in −20° C. until analysis using Luminex. Cells were washed in PBS, centrifuged at 360×g for 2 min at 4° C. Supernatant was flicked off and antibodies against surface markers were added. Cells were incubated at +4° C. for 20 minutes (dark). After incubation, cells were washed 1× in PBS, centrifuged at 360×g for 2 min at 4° C. Cells were resuspended in PBS and acquired using the Attune Nxt flow cytometer. Compensation was performed using beads—AbC Total Compensation capture beads and negative beads. Since compensation was done using beads, FSC and SSC were changed before analysing samples and adjusted to cells. Lasers were not changed after compensation. 150 μl was analysed from each sample.

[2] = tested on: human PBMCs activated with anti-CD3/anti-CD28; assay: PBMC:MSC co-culture, proliferation and cell composition after 72 hours of activation (FACS after CFSE labeling); conditions: MSCs in co-culture, Prednisolone 125 nM
Protocol: as §1, §2, §3, §4
After 72 hours of incubation, CFSE stained cells were stained with CD4, CD8, CD80, CD206 and CD163 in staining buffer. Briefly, cells were transferred to V bottom plates, centrifuged at 360×g for 2 min. Cells were washed in PBS, centrifuged at 360×g for 2 min at 4° C. Supernatant was flicked off and surface markers were added. Cells were incubated at +4° C. for 20 minutes. After incubation, cells were washed 1× in PBS, centrifuged at 360×g for 2 min at 4° C. Cells were resuspended in PBS and acquired using the Attune Nxt flow cytometer. Compensation was performed using beads—AbC Total Compensation capture beads and negative beads for surface markers. For CFSE compensation, newly CFSE stained cells were used. Since compensation was done using both beads and cells, FSC and SSC were changed and adjusted to beads or cells. […]
Graphs were performed using Prism 8 for Mac OS X (GraphPad Software, San Diego, CA, USA). […] The inhibitory effect of MSCs on PBMC proliferation was calculated according to the two formulas below: […]

[3] = tested on: human PBMCs activated with anti-CD3/anti-CD28; assay: Cytokine analysis after 24 hours of activation (Luminex); type: cell-based; conditions: stimulated PBMCs, Prednisolone 125 nM
Protocol: Cells were washed and the isolated PBMCs were pooled. […] Pooled PBMCs were split into 2 different tubes. […] Cells in tube two was left in PBS. […] See also FIG. 19. Supernatant (24 hours incubation) was analysed for cytokines using the 12-[…]-12 Luminex kit. All reagents, standard and samples were prepared at room temperature and according to manufacturer's instruction. Briefly, 50 μl of standard or sample was added to wells. Microparticles were added to samples and standard and samples were incubated for 2 hours at room temperature on a horizontal orbital shaker (800 rpm). Plate was washed 3× in washing buffer using a magnetic plate. Biotin-antibody was added and incubated dark for 1 hour at room temperature on a horizontal orbital shaker (800 rpm). Plate was washed 3× in washing buffer using a magnetic plate. Streptavidin-PE was added to each well and incubated dark at room temperature on a horizontal orbital shaker (800 rpm) for 30 minutes. Plate was washed 3× in washing buffer using a magnetic plate. Microparticles were resuspended in 100 μl washing buffer, incubated for 2 minutes on a horizontal orbital shaker (800 rpm). Samples were analysed on a Bio-Rad Luminex analyzer.

C[C@]12C=CC(=O)C=C1CC[C@@H]1[C@@H]2[C@@H](O)C[C@@]2(C)[C@H]1CC[C@]2(O)C(=O)CO [Prednisolone]
M2 macrophage expression ([1]; CsA 10 μg/ml): no effect | expression level of M1 macrophages ([1]; CsA 10 μg/ml): no effect | macrophage cell composition [1]: did not have an effect | T cell activation ([1]; reference drug treated PBMCs, CsA 10 μg/ml): only slightly inhibits | % T helper cells ([1]; reference drug treated PBMCs): higher levels | T helper cells (% ) ([2]; 72 hours of incubation, CsA 10 μg/ml): no effect | M1 proliferation (CFSE) ([2]; 72 hours, CsA 10 μg/ml): No effect | M2 expression levels ([2]; 72 hours, CsA 10 μg/ml): no effect | M2 proliferation (CFSE) ([2]; 72 hours, CsA 10 μg/ml): No effect | M1 expression levels ([2]; 72 hours): no effect | IL-6 levels in supernatant ([3]; CsA 10 μg/ml): inhibits | the other analysed cytokines, levels in supernatant ([3]; CsA 10 μg/ml, 12-plex Luminex): No inhibitory effect | TNF-α levels in supernatant ([3]; MSCs at all ratios, CsA 10 μg/ml): inhibits | IL12/IL23p40 levels in supernatant ([3]; MSCs at all ratios): inhibits | HGF levels in supernatant ([3]; MSCs dose-dependent, CsA 10 μg/ml): inhibits
